# From PubChem BioAssay AID1918941 (Molecular Pharmacology Branch, DTP, NCI, 2023)
# Values joined by “and” are separate entries in the source; they are usually repeats but may differ in a detail not shown here. Equal entries are not always repeated.
# System: SW 1271 complex spheroids, viability
# Assay: Anticancer human tumor SW 1271 cell line growth inhibition [LSD1];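 also: spheroids exposed to agents for 7 days before luminescence read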;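 as to viability, T/C: 100% = DMSO vehicle control viability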
# Settings: compound 3 µM; stronger effect = lower value
# Text: Multicellular complex tumor spheroid response to LSD1 Inhibitor Iadademstat in combination with a variety of drugs and investigational agents in selected tumor cell lines
# The current study was undertaken to assess response to LSD1 inhibitors in combination with standard-of-care drugs and investigational agents in solid tumor complex spheroid models as well as in the K-562 leukemia. Complex spheroids include a stromal component modeled by human endothelial cells (HUVEC) and fibroblasts modeled by human mesenchymal stem cells (MSCs). The concentration ranges selected for each drug and investigational agent were based upon clinically achievable concentrations if the clinical Cmax of the agent was known.
# Compounds. The drugs and investigational agents used in this study are listed on Table 1. All of the agents used, including staurosporine (NSC755774) and gemcitabine (NSC613327), were obtained from the Developmental Therapeutics Program, NCI. FDA-approved anticancer drugs are available from the NCI at http://dtp.nci.nih.gov/branches/dscb/oncology_drugset_explanation.html. Drugs and investigational agents were >95% pure by proton nuclear magnetic resonance (NMR) and liquid chromatography/mass spectrometry (LC/MS). Stock solutions were prepared at 400x in DMSO, stored at -70 degrees C, and diluted in fresh medium prior to their use. The final concentration of DMSO in cell culture wells never exceeded 0.25% (v/v). The FDA-approved anticancer drug set is available from the Developmental Therapeutics Program at https://dtp.cancer.gov/organization/dscb/obtaining/available_plates.htm. All drugs and investigational agents were tested over a range starting from a high concentration at or near the clinical Cmax and decreasing in half-log increments. If the clinical Cmax for an agent had not been determined, the highest concentration tested was 10 microM.
# Cell Lines. The patient-derived cancer cell (PDC) lines: 292921-168-R-J2-PDC, K24384-001-R-PDC, and 521955-158-R2-J5-PDC pancreatic carcinomas, 556581-035-R-J1 ovarian carcinoma, 324938-238-R-J1-PDC, 855422-203-R-J1-PDC and 883617-216-R-J1-PDC urothelial bladder carcinomas, 743489-274-T-PDC renal cell carcinoma, 138582-R-J1 Merkel cell tumor, K60290-347-R-J1 and K57222-313-R-J1-PDC glioblastomas, 653999-131-R-J2-PDC, LG0703-F948-PDC, and 349418-098-R-PDC non-small cell lung carcinomas, 885512-296-R-J2-PDC, 171881-019-R-J1-PDC breast carcinomas and 186277-243-T-J2-PDC and 233499-124-R-J2-PDC colon carcinomas were obtained from the NCI Patient-Derived Models Repository (PDMR, https://pdmr.cancer.gov). The established cell lines NCI/ADR-RES (RRID:CVCL_14520 and OVCAR-5 (RRID:CVCL_1628) ovarian carcinomas, 786-O (RRID:CVCL_1051) and A498 (RRID:CVCL_A498) renal cell carcinoma, NCI-H211 (ATCC, cat. CRL-5824; RRID:CVCL_1529), NCI-H196 (ATCC, cat. CRL-5823, RRID:CVCL_1509), SW 1271 (ATCC, cat. CRL-2177, RRID:CVCL_1716) and NCI-H1876 (ATCC, cat. CRL-5902, RRID:CVCL_1503) small cell lung carcinomas, MDA-MB-231 (RRID:CVCL_0062) and MDA-MB-468 (RRID:CVCL_0419)breast carcinomas (10-12). Pooled donor human umbilical vein endothelial cells (HUVEC, Lonza, cat. CC-2519) and human mesenchymal stem cells (hMSC, Lonza, cat. PT-2501) were purchased from Lonza (Walkersville, MD).
# Cell Culture. All cells were maintained in an incubator at 37 degrees C and 5% CO2 with 95% humidity. The PDC lines were cultured according to standard operating procedures established by the NCI PDMR (https://pdmr.cancer.gov). Briefly all PDCs were thawed and cultured in Matrigel-coated flasks prepared with a working solution of 1X Ham's F-12 nutrient mix, without supplementation (Invitrogen, Waltham, MA, cat. 11765054), 100 U/mL penicillin-streptomycin (Invitrogen, cat. 15140122), and 2.5% Matrigel (Corning Inc., Corning, NY, cat. 354248) for the first three passages. […]
row,SMILES,"viability, T/C"
1,CCN(c1cc(-c2ccc(CN3CCOCC3)cc2)cc(C(=O)NCc2c(C)cc(C)[nH]c2=O)c1C)C1CCOCC1,73.6% and 71.4%
2,COc1cc(C2c3cc4c(cc3C(OC3OC5COC(C)OC5C(O)C3O)C3COC(=O)C23)OCO4)cc(OC)c1O (stereo not drawn),54.7% and 53.3%
3,NS(=O)(=O)OCC1CC(n2ccc3c(NC4CCc5ccccc54)ncnc32)CC1O (stereo not drawn),82.1% and 73.2%
4,Nc1ccccc1NC(=O)c1ccc(CNC(=O)OCc2cccnc2)cc1,6.48% and 7.88%

# Same assay, conditions: compound 3.16 µM; stronger effect = lower value
row,SMILES,"viability, T/C"
1,CC(C)c1c(-c2ccccc2)nc2c(C#N)c[nH]n2c1=O,86.2% and 91.6%
2,CC1(C)CCC(CN2CCN(c3ccc(C(=O)NS(=O)(=O)c4ccc(NCC5CCOCC5)c([N+](=O)[O-])c4)c(Oc4cnc5[nH]ccc5c4)c3)CC2)=C(c2ccc(Cl)cc2)C1,28.1% and 55.8%
3,CC1COCCN1c1cc(C2(S(C)(=N)=O)CC2)nc(-c2ccnc3[nH]ccc23)n1 (stereo not drawn),62% and 54.3%
4,COc1ccc([C@@H](O)c2cc(-c3ncnc4cc(N5CCOCC5)ccc34)c(F)cc2Cl)nn1,31.7% and 28.2%
5,O=C(c1cc(Cc2n[nH]c(=O)c3ccccc23)ccc1F)N1CCN(C(=O)C2CC2)CC1,90.2% and 77%

# Same assay, conditions: compound 10 µM; stronger effect = lower value
row,SMILES,"viability, T/C"
1,CC(C)c1c(-c2ccccc2)nc2c(C#N)c[nH]n2c1=O,75.1% and 94.7%
2,CC1(C)CCC(CN2CCN(c3ccc(C(=O)NS(=O)(=O)c4ccc(NCC5CCOCC5)c([N+](=O)[O-])c4)c(Oc4cnc5[nH]ccc5c4)c3)CC2)=C(c2ccc(Cl)cc2)C1,0.45% and 4.57%
3,CC1COCCN1c1cc(C2(S(C)(=N)=O)CC2)nc(-c2ccnc3[nH]ccc23)n1 (stereo not drawn),62.1% and 39.4%
4,COc1ccc([C@@H](O)c2cc(-c3ncnc4cc(N5CCOCC5)ccc34)c(F)cc2Cl)nn1,20.3% and 21.4%
5,NC1CC1c1ccc(-c2cccc(O)c2)cc1 (stereo not drawn),63.2% [middle of 25 runs]
6,O=C(c1cc(Cc2n[nH]c(=O)c3ccccc23)ccc1F)N1CCN(C(=O)C2CC2)CC1,87.5% and 68.8%

# Same assay, conditions: compound alone; run of 02/15/2022
row,SMILES,IC50 [nM]
1,NC1CCC(NC2CC2c2ccccc2)CC1 (stereo not drawn),> 10000

# Same assay, conditions: compound alone; run of 02/21/2022
row,SMILES,IC50 [nM]
1,NC1CC1c1ccc(-c2cccc(O)c2)cc1 (stereo not drawn),> 10000

# Same assay, conditions: curve of compound
row,SMILES,IC50
1,CC(C)CC(NC(=O)C(Cc1ccccc1)NC(=O)c1cnccn1)B(O)O (stereo not drawn),< 0.316 nM
2,CC(C)CC(NC(=O)CNC(=O)c1cc(Cl)ccc1Cl)B1OC(=O)CC(CC(=O)O)(C(=O)O)O1 (stereo not drawn),4.78 nM and 5.84 nM
3,CC(C)c1c(-c2ccccc2)nc2c(C#N)c[nH]n2c1=O,> 10000 nM
4,CC1(C)CCC(CN2CCN(c3ccc(C(=O)NS(=O)(=O)c4ccc(NCC5CCOCC5)c([N+](=O)[O-])c4)c(Oc4cnc5[nH]ccc5c4)c3)CC2)=C(c2ccc(Cl)cc2)C1,2170 nM and 3600 nM
5,CC1COCCN1c1cc(-c2ccnn2C)c2ccnc(-c3ccn[nH]3)c2n1 (stereo not drawn),108 nM and 92.1 nM
6,CC1COCCN1c1cc(C2(S(C)(=N)=O)CC2)nc(-c2ccnc3[nH]ccc23)n1 (stereo not drawn),> 10000 nM and 3980 nM
7,CCN(c1cc(-c2ccc(CN3CCOCC3)cc2)cc(C(=O)NCc2c(C)cc(C)[nH]c2=O)c1C)C1CCOCC1,> 3000 nM
8,CC[C@@]1(O)C(=O)OCc2c1cc1n(c2=O)Cc2cc3c(CN(C)C)c(O)ccc3nc2-1,> 100 nM
9,CCc1c2c(nc3ccc(O)cc13)-c1cc3c(c(=O)n1C2)COC(=O)[C@]3(O)CC,3.64 nM and < 0.949 nM
10,COc1cc(C2c3cc4c(cc3C(OC3OC5COC(C)OC5C(O)C3O)C3COC(=O)C23)OCO4)cc(OC)c1O (stereo not drawn),> 3000 nM
11,COc1cc(Nc2ncc3c(n2)-c2ccc(Cl)cc2C(c2c(F)cccc2OC)=NC3)ccc1C(=O)O,179 nM and 164 nM
12,COc1ccc([C@@H](O)c2cc(-c3ncnc4cc(N5CCOCC5)ccc34)c(F)cc2Cl)nn1,523 nM and 741 nM
13,Cn1ncnc1C1c2n[nH]c(=O)c3cc(F)cc(c23)NC1c1ccc(F)cc1 (stereo not drawn),> 100 nM
14,NS(=O)(=O)OCC1CC(n2ccc3c(NC4CCc5ccccc54)ncnc32)CC1O (stereo not drawn),> 3000 nM
15,Nc1ccccc1NC(=O)c1ccc(CNC(=O)OCc2cccnc2)cc1,156 nM and 127 nM
16,Nc1ccn(C2OC(CO)C(O)C2(F)F)c(=O)n1 (stereo not drawn),> 300 nM
17,Nc1ncn(C2CC(O)C(CO)O2)c(=O)n1 (stereo not drawn),> 1000 nM
18,Nc1ncn(C2CC(O)C(CO)S2)c(=O)n1 (stereo not drawn),> 300 nM
19,O=C(C=Cc1cccc(S(=O)(=O)Nc2ccccc2)c1)NO,228 nM and 109 nM
20,O=C(C=Cn1cnc(-c2cc(C(F)(F)F)cc(C(F)(F)F)c2)n1)NNc1cnccn1,153 nM and 147 nM
21,O=C(c1cc(Cc2n[nH]c(=O)c3ccccc23)ccc1F)N1CCN(C(=O)C2CC2)CC1,> 10000 nM
